Values quoted from earlier work, collected in publication PMC8654284 (Science Advances, 2021).
Where two headings read alike, the source gives them in different places.

Key:
NK1R [1] = system: NK1R
NK1R [2] = conditions: clinically used NK1R antagonists
NK1R [3] = conditions: said to explain the insurmountable antagonism only in part
NK1R [4] = conditions: NKA and NKB compared to SP
NK1R E172K = conditions: NK1R E172 mutated to lysine as found in NK3R
[5] = inhibition of receptor activation by SP

Compound	in vivo efficacy (duration) (NK1R [2])	mode of antagonism (NK1R [1]; [5])	dissociation kinetics (NK1R [3])	affinity for NK1R (NK1R [4])	also measured
COc1ccccc1CN[C@H]1CCCN[C@H]1c1ccccc1 [CP-99,994]	–	–	–	–	mode of antagonism (NK1R [1]; compared to aprepitant and netupitant): tight-binding, but surmountable
C[C@@H](O[C@H]1OCCN(Cc2n[nH]c(=O)[nH]2)[C@H]1c1ccc(F)cc1)c1cc(C(F)(F)F)cc(C(F)(F)F)c1 [aprepitant]	markedly prolonged in vivo efficacy	pseudo-irreversible antagonists	slower dissociation kinetics	–	–
Cc1ccccc1-c1cc(N2CCN(C)CC2)ncc1N(C)C(=O)C(C)(C)c1cc(C(F)(F)F)cc(C(F)(F)F)c1 [netupitant]	markedly prolonged in vivo efficacy	pseudo-irreversible antagonists	slower dissociation kinetics	–	–
neurokinin A [NKA]	–	–	–	lower affinity compared to SP	–
neurokinin B [NKB]	–	–	–	lower affinity compared to SP	affinity of NKB at E172K mutant (NK1R E172K): increases affinity
